Results: the supplement of paper PMC4862054
Several values for one entry are separate records, joined by “and”; a condition that tells them apart may be missing. Equal values may be shown once.

How the values were obtained:
BT-474 [1] = test: normalised viability (% of control), CellTiter-Blue; higher = more viable cells (about 100 = DMSO control); details: incubation time: 72 h
Summary of the method: (§1)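 Seeded at 20 µl suspension per well onto compound-loaded 384-well plates, breast cancer cell lines were incubated 72 h. CellTiter-Blue fluorescence at 560/590 nm was then read, with each plate normalised to vehicle (100) and a positive kill control (0). Normalised viability is reported at a single listed concentration of the series.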

BT-549 [2] = test: as above; details: incubation time: 72 h
Summary of the method: as §1

DU-4475 [3] = test: as above; details: incubation time: 72 h
Summary of the method: as §1

MDA-MB-453 [4] = test: as above; details: 1 nM; incubation time: 72 h
Summary of the method: as §1

MFM-223 [5] = test: as above; details: incubation time: 72 h
Summary of the method: as §1

BT-474 [6] = test: normalised viability (% of control), CellTiter-Blue; higher = more viable cells (100 = DMSO, 0 = benzethonium chloride kill control); details: incubation time: 72 h
Description: (§2)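 DSRT, CellTiter-Blue viability, 72 h incubation. Signal is normalised to DMSO and benzethonium chloride controls. Value is the normalised response at dose 1.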

BT-549 [7] = test: as above; details: incubation time: 72 h
Description: as §2

CAL-120 = test: as above; details: incubation time: 72 h
Description: as §2

CAL-148 = test: as above; details: incubation time: 72 h
Description: as §2

CAL-51 [8] = test: as above; details: incubation time: 72 h
Description: as §2

CAL-85-1 = test: as above; details: incubation time: 72 h
Description: as §2

DU-4475 [9] = test: as above; details: incubation time: 72 h
Description: as §2

HCC1143 = test: as above; details: incubation time: 72 h
Description: as §2

HCC1599 = test: as above; details: incubation time: 72 h
Description: as §2

HCC1937 [10] = test: as above; details: incubation time: 72 h
Description: as §2

HDQ-P1 = test: as above; details: incubation time: 72 h
Description: as §2

Hs578T = test: as above; details: incubation time: 72 h
Description: as §2

MDA-MB-231 [11] = test: as above; details: incubation time: 72 h
Description: as §2

MDA-MB-436 = test: as above; details: incubation time: 72 h
Description: as §2

MDA-MB-453 [12] = test: as above; details: incubation time: 72 h
Description: as §2

MDA-MB-468 = test: as above; details: incubation time: 72 h
Description: as §2

MFM-223 [13] = test: as above; details: incubation time: 72 h
Description: as §2

SK-BR-3 = test: as above; details: incubation time: 72 h
Description: as §2

BT-474 [14] = test: normalised response (% of control), CellTiter-Glo; higher = more viable cells (100 = DMSO, 0 = benzethonium chloride kill control); details: incubation time: 72 h
Summary of the method: (§3)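 Normalised signals at single concentrations make up the values. They come from breast cancer cell lines seeded (20 µl suspension) into 384-well plates with compound at 5 concentrations in 10-fold steps over a compound-specific 10,000-fold range, incubated 72 h, and read for CellTox Green fluorescence then CellTiter-Glo luminescence. Each plate was normalised to 0.1 % DMSO (100) and a positive kill control (0).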

BT-549 [15] = test: as above; details: incubation time: 72 h
Summary of the method: as §3

CAL-51 [16] = test: as above; details: incubation time: 72 h
Summary of the method: as §3

HCC1937 [17] = test: as above; details: incubation time: 72 h
Summary of the method: as §3

MDA-MB-231 [18] = test: as above; details: incubation time: 72 h
Summary of the method: as §3

Cc1cccc(-c2nn3c(c2-c2ccnc4ccc(C(N)=O)cc24)CCC3)n1
normalised viability (BT-474 [1]; 10 nM): 107% | normalised viability (BT-549 [2]; 10 nM): 96.4% | normalised viability (DU-4475 [3]; 1 nM): 90.5% | normalised viability (MDA-MB-453 [4]): 112% | normalised viability (MFM-223 [5]; 10 nM): 96.8% | normalised viability (BT-474 [6]; 0.1 nM): 116% | normalised viability (BT-549 [7]; 0.1 nM): 104% | normalised viability (CAL-120; 0.1 nM): 98.2% | normalised viability (CAL-148; 0.1 nM): 104% | normalised viability (CAL-51 [8]; 0.1 nM): 93.5% | normalised viability (CAL-85-1; 0.1 nM): 92.6% | normalised viability (DU-4475 [9]; 0.1 nM): 113% | normalised viability (HCC1143; 0.1 nM): 110% | normalised viability (HCC1599; 0.1 nM): 99.3% | normalised viability (HCC1937 [10]; 0.1 nM): 91.3% | normalised viability (HDQ-P1; 0.1 nM): 109% | normalised viability (Hs578T; 0.1 nM): 113% | normalised viability (MDA-MB-231 [11]; 0.1 nM): 113% | normalised viability (MDA-MB-436; 0.1 nM): 128% | normalised viability (MDA-MB-453 [12]; 0.1 nM): 108% | normalised viability (MDA-MB-468; 0.1 nM): 108% | normalised viability (MFM-223 [13]; 0.1 nM): 103% | normalised viability (SK-BR-3; 0.1 nM): 106%

Cn1cc(CNCC2CCN(c3ncc(C(=O)NO)cn3)CC2)c2ccccc21
normalised viability (BT-474 [1]; 10 nM): 78.2% | normalised viability (BT-549 [2]; 10 nM): 103% | normalised viability (DU-4475 [3]; 1 nM): 89% | normalised viability (MDA-MB-453 [4]): 86.3% | normalised viability (MFM-223 [5]; 10 nM): 74.7% | normalised viability (BT-474 [6]; 0.1 nM): 98.1% | normalised viability (BT-549 [7]; 0.1 nM): 88.6% | normalised viability (CAL-120; 0.1 nM): 89.2% | normalised viability (CAL-148; 0.1 nM): 103% | normalised viability (CAL-51 [8]; 0.1 nM): 105% | normalised viability (CAL-85-1; 0.1 nM): 84.9% | normalised viability (DU-4475 [9]; 0.1 nM): 97.6% | normalised viability (HCC1143; 0.1 nM): 95.7% | normalised viability (HCC1599; 0.1 nM): 101% | normalised viability (HCC1937 [10]; 0.1 nM): 106% | normalised viability (HDQ-P1; 0.1 nM): 83.6% | normalised viability (Hs578T; 0.1 nM): 120% | normalised viability (MDA-MB-231 [11]; 0.1 nM): 95.6% | normalised viability (MDA-MB-436; 0.1 nM): 87.9% | normalised viability (MDA-MB-453 [12]; 0.1 nM): 98.8% | normalised viability (MDA-MB-468; 0.1 nM): 91.1% | normalised viability (MFM-223 [13]; 0.1 nM): 89.5% | normalised viability (SK-BR-3; 0.1 nM): 97.5%

COc1ccc(-c2cc3c(C)nc(N)nc3n([C@H]3CC[C@H](OCCO)CC3)c2=O)cn1 (1000 nM)
normalised response (BT-474 [14]): 34.7% | normalised response (BT-549 [15]): 17.8% | normalised response (CAL-51 [16]): 10% | normalised response (HCC1937 [17]): 38.7% | normalised response (MDA-MB-231 [18]): 24.7%

COc1cc(CCc2cc(NC(=O)c3ccc(N4CC(C)NC(C)C4)cc3)n[nH]2)cc(OC)c1 (stereo not given) [AZD4547] (100 nM)
normalised response (BT-474 [14]): 102% | normalised response (BT-549 [15]): 88.4% | normalised response (CAL-51 [16]): 91.4% | normalised response (HCC1937 [17]): 93.4% | normalised response (MDA-MB-231 [18]): 106%

CCC/C=C/C=C/C(=O)O[C@H]1/C(=C/C(=O)OC)C[C@H]2C[C@H]([C@@H](C)O)OC(=O)C[C@H](O)C[C@@H]3C[C@H](OC(C)=O)C(C)(C)[C@](O)(C[C@@H]4C/C(=C/C(=O)OC)C[C@H](/C=C/C(C)(C)[C@]1(O)O2)O4)O3 [Bryostatin 1] (10 nM)
normalised response (BT-474 [14]): 87.2% | normalised response (BT-549 [15]): 94.2% | normalised response (CAL-51 [16]): 69.1% | normalised response (HCC1937 [17]): 97.8% | normalised response (MDA-MB-231 [18]): 89.2%

CO[C@@H](C(=O)N1Cc2[nH]nc(NC(=O)c3ccc(N4CCN(C)CC4)cc3)c2C1)c1ccccc1 [Danusertib] (1000 nM)
normalised response (BT-474 [14]): 75.6% | normalised response (BT-549 [15]): 51.4% | normalised response (CAL-51 [16]): 59.9% | normalised response (HCC1937 [17]): 89.3% | normalised response (MDA-MB-231 [18]): 74.7%

Cc1nc(Nc2ncc(C(=O)Nc3c(C)cccc3Cl)s2)cc(N2CCN(CCO)CC2)n1 [Dasatinib]
normalised viability (BT-474 [1]; 10 nM): 117% and 108% | normalised viability (BT-549 [2]; 10 nM): 91.5% and 93.8% | normalised viability (DU-4475 [3]; 1 nM): 105% and 111% | normalised viability (MDA-MB-453 [4]): 100% | normalised viability (MFM-223 [5]; 10 nM): 91.8% and 88% | normalised viability (BT-474 [6]; 0.1 nM): 97.5% and 85.4% | normalised viability (BT-549 [7]; 0.1 nM): 101% and 89.2% | normalised viability (CAL-120; 0.1 nM): 104% and 85.6% | normalised viability (CAL-148; 0.1 nM): 104% and 96.1% | normalised viability (CAL-51 [8]; 0.1 nM): 105% and 114% | normalised viability (CAL-85-1; 0.1 nM): 97.2% and 88.5% | normalised viability (DU-4475 [9]; 0.1 nM): 109% and 110% | normalised viability (HCC1143; 0.1 nM): 102% and 84.5% | normalised viability (HCC1599; 0.1 nM): 106% and 88.6% | normalised viability (HDQ-P1; 0.1 nM): 126% and 109% | normalised viability (Hs578T; 0.1 nM): 107% and 97.2% | normalised viability (MDA-MB-231 [11]; 0.1 nM): 110% and 86.5% | normalised viability (MDA-MB-436; 0.1 nM): 94.8% and 91.2% | normalised viability (MDA-MB-453 [12]; 0.1 nM): 103% and 97.2% | normalised viability (MDA-MB-468; 0.1 nM): 109% and 100% | normalised viability (MFM-223 [13]; 0.1 nM): 99.2% and 94.2% | normalised viability (SK-BR-3; 0.1 nM): 98.2% and 92.7%

Cc1nc(Nc2ncc(C(=O)Nc3c(C)cccc3Cl)s2)cc(N2CCN(CCO)CC2)n1 [Dasatinib] (100 nM)
normalised response (BT-474 [14]): 54.8% | normalised response (BT-549 [15]): 61.7% | normalised response (CAL-51 [16]): 51.6% | normalised response (HCC1937 [17]): 69.7% | normalised response (MDA-MB-231 [18]): 43.8%

CS(=O)(=O)N1CCN(Cc2cc3nc(-c4cccc5[nH]ncc45)nc(N4CCOCC4)c3s2)CC1 [GDC-0941]
normalised viability (BT-474 [1]; 100 nM): 102% | normalised viability (BT-549 [2]; 100 nM): 92.8% | normalised viability (DU-4475 [3]; 10 nM): 108% | normalised viability (MFM-223 [5]; 100 nM): 82% | normalised viability (BT-474 [6]; 1 nM): 101% | normalised viability (BT-549 [7]; 1 nM): 94.6% | normalised viability (CAL-120; 1 nM): 89.7% | normalised viability (CAL-148; 1 nM): 100% | normalised viability (CAL-51 [8]; 1 nM): 114% | normalised viability (CAL-85-1; 1 nM): 87.5% | normalised viability (DU-4475 [9]; 1 nM): 106% | normalised viability (HCC1143; 1 nM): 84.1% | normalised viability (HCC1599; 1 nM): 92.8% | normalised viability (HCC1937 [10]; 1 nM): 112% | normalised viability (HDQ-P1; 1 nM): 109% | normalised viability (Hs578T; 1 nM): 112% | normalised viability (MDA-MB-231 [11]; 1 nM): 92.9% | normalised viability (MDA-MB-436; 1 nM): 118% | normalised viability (MDA-MB-453 [12]; 1 nM): 93% | normalised viability (MDA-MB-468; 1 nM): 95.5% | normalised viability (MFM-223 [13]; 1 nM): 89.7% | normalised viability (SK-BR-3; 1 nM): 88.3%

Cc1c(CN2CCN(C(=O)[C@H](C)O)CC2)sc2c(N3CCOCC3)nc(-c3cnc(N)nc3)nc12 [GDC-0980] (1000 nM)
normalised response (BT-474 [14]): 57% | normalised response (BT-549 [15]): 36.4% | normalised response (CAL-51 [16]): 30.9% | normalised response (HCC1937 [17]): 70.8% | normalised response (MDA-MB-231 [18]): 52%
